We go through 2 compounds from ChEMBL document CHEMBL2331082, “Cinnamic acid derivatives as inhibitors for chorismatases and isochorismatases” (Bioorg Med Chem Lett, 2013).

Assay [1] in a line: Inhibition of Streptomyces hygroscopicus hyg5 expressed in Escherichia coli BL21(DE3) using chorismate as substrate after 5 mins by LDH-coupled spectrophotometric assay.
Assay [2] deals with T1, Chorismatase (Streptomyces hygroscopicus subsp. ascomyceticus, UniProt Q9KID9).
T1 sequence (Q9KID9 whole entry): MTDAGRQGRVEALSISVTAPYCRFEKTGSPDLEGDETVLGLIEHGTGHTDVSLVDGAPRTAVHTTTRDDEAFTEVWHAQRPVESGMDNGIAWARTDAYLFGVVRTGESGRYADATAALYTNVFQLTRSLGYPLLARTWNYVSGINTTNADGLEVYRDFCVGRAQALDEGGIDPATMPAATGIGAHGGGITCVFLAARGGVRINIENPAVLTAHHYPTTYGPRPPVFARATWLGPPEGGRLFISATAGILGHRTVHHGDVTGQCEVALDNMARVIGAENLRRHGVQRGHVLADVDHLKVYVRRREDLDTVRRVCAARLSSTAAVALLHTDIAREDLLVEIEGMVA
The assay is described as follows: Inhibition of Streptomyces hygroscopicus subsp. ascomyceticus chorismatase FkbO expressed in Escherichia coli BL21(DE3) using chorismate as substrate after 5 mins by LDH-coupled spectrophotometric assay.

Assay [3] has as its target T1, Chorismatase. The assay can be described thus: Competitive inhibition of Streptomyces hygroscopicus subsp. ascomyceticus chorismatase FkbO expressed in Escherichia coli BL21(DE3) using chorismate as substrate.
Assay [4] can be described thus: Competitive inhibition of Escherichia coli EntB expressed in Escherichia coli BL21(DE3) using chorismate as substrate.
The nature of assay [5]: Inhibition of Escherichia coli EntB expressed in Escherichia coli BL21(DE3) using chorismate as substrate after 5 mins by LDH-coupled spectrophotometric assay.

On to `O=C(O)/C=C/c1cccc(C(=O)O)c1`, for which the IC50 stood at 68500 µM in assay [1], 45000 µM against Chorismatase [2] and 209 µM in assay [5]. Besides, the Ki amounted to 19600 µM at Chorismatase [3] and 122 µM in assay [4].
The corresponding values for `O=C(O)CCc1cccc(C(=O)O)c1` are 1250 µM, 1090 µM, 472 µM, 1020 µM and 282 µM.
